From patent US9145375B2, “Quinazolinone compounds” (PRANA BIOTECHNOLOGY LIMITED, priority 2008, dated 2015) come the findings set out here.

SMILES strings stand for the structures. “And” between values parts separate entries of the source, which are not always exact repeats. Equal entries are not always repeated. Where two headings read alike, the source gives them in different places. A value given as a limit tells only on which side of the number the result lay.

In data set [1] the target is T1, CYP2D6 (Homo sapiens, UniProt P10635).
T1 construct: using a specific substrate approach in human liver microsomes; from tissue; host or cells: human liver microsomes
Briefly: CYP450 inhibition, specific substrate approach in human liver microsomes: CYP2D6. It counts as in vitro ADME. The method, then:
CYP450 Isoform Inhibition Using a Specific Substrate Approach
The present study is a “Tier 2” screen to assess potential enzyme inhibition at a test compound concentration of 20 μM using a specific substrate approach in human liver microsomes.
The substrate specific enzyme inhibition study relies on the formation of a metabolite that is mediated by a specific CYP450 isoform using human liver microsomes. In the current study, the following reactions were monitored to assess interactions with specific CYP450 isoforms. A known inhibitor of each isoform was included in each assay as a positive control. The following IC50 values have been reported in the literature using equivalent assay conditions for each CYP450 isoform:
The reaction was initiated by the addition of an NADPH-regenerating system and was quenched by the addition of acetonitrile prior to determining the concentration (and apparent rate of formation) of the specific metabolite by LC/MS.
The IC50 was deemed to be the concentration at which there was a 50% reduction in the amount of metabolite formed, relative to the maximal extent of formation.
(In general: Microsomes from liver hold many membrane-bound enzymes, among them those of drug oxidation.)

Data set [2] can be described thus: Plasma Protein Binding, mouse. It counts as in vitro ADME.
The nature of data set [3]: Plasma Protein Binding, rat. It counts as in vitro ADME.
Data set [4] deals with Fe-DA. The data set is described as follows: H2O2 assay, Fe-DA (% cf. Fe 0.4 μM/DA 50 μM). Type of data set: biochemical. The conditions noted are these: Fe 0.4 μM/DA 50 μM. The method, then: (§1) This fluoresence assay evaluates the ability of a test compound to inhibit the generation of hydrogen peroxide (H2O2) by iron in the presence of a reducing substrate such as ascorbic acid. In the assay, iron in the form of FeCl3 or copper is allowed to react with ascorbic acid by incubating for 1 hr at 37° C. in the presence of the fluorescing compound DCF and horseradish peroxidase. H2O2 generated by the system is assessed by measuring the specific fluorescence profile at the excitation and emission wavelengths of 485 and 530 nm respectively, in the presence of increasing concentrations of test compound. Test compounds are ranked according to their capacity to inhibit H2O2 generated by the system where lower values reflect greater ability to inhibit H2O2 production.

For data set [5], the system named is generation of hydrogen peroxide (H2O2) by iron. The data set is described as follows: H2O2 Inhibition Assay. Type of data set: biochemical. The procedure: Assay 1. H2O2 Inhibition Assay.
as §1

For data set [6], the system named is M17 human neuroblastoma cells. The data set is described as follows: Metal Uptake Assay (metal transport). Type of data set: cell-based. The conditions noted are these: 10 μM Cu + 10 μM compound, 5 hours. The procedure:
Assay 3. Metal Uptake Assay
M17 human neuroblastoma cells are plated out on 6 well plates and left overnight. Enough cells are added to give approximately 70% confluent the following day of the experiment. Test compounds are added to media and mixed with equi-molar amounts of CuCl2 solution. A=10 μM Cu+10 μM MPAC; B=10 μM Cu+10 μM MPAC.
Cells are incubated in 1 ml of media/MPAC/Cu mix for 5 hours at 37° C. At the end of the incubation the media is removed with a vacuum aspirator and 1 ml of PBS added to dislodge the cells. Cells are then put into Eppendorf tubes and pelleted. The PBS is removed and the remaining cell pellets are frozen at −20 C.
The cell pellets are prepared as follows:
Received cell pellets of similar levels in 1.5 ml microfuge tubes. Added 50 μl of concentrated Nitric Acid (Aristar, BDH) to each cell pellet and allowed them to digest over night. Heated the samples for 20 min at 90° C. to complete the digestion. The volume of each sample was reduced to ˜45 ul after digestion. Added 1 ml of the 1% Nitric Acid diluent to each sample. (referred to as the “preparation solution” samples).
Measurements were made using a Varian UltraMass ICPMS instrument under operating conditions suitable for routine multi-element analysis.
The instrument was calibrated using Blank, 10, 50 and 100 ppb of a certified multi-element ICPMS standard solution (ICP-MS—CAI2-1, Accustandard) for Fe, Cu and Zn in 1% nitric acid. Used an certified internal standard solution containing 100 ppb Yttrium (Y 89) as an internal control (ICP-MS—IS-MIX1-1, Accustandard).

Data set [7] relates to M17. The data set is described as follows: Cytotox (% viable), cells marked M17. It counts as cell-based, human. The conditions noted are these: repeat values given.
In data set [8] the test system is Neuronal cortical cells. The data set is described as follows: Cytotox (% viable); Primary Neuronal Cells Neurotoxicity Assay. Type of data set: cell-based, mouse. The conditions noted are these: cell type not given, repeat values given. The method, then:
Assay 2 (a). Primary Neuronal Cells Neurotoxicity Assays
Cortical cultures were prepared as previously described (White et al., 1998). Embryonic day 14 BL6Jx129sv mouse cortices were removed, dissected free of meninges and dissociated in 0.025% (wt/vol) trypsin. Dissociated cells were plated in 48 well culture plates at a density of 2×10^6 cells/mL in MEM with 25% (vol/vol) FCS and 5% (vol/vol) HS and incubated at 37° C., 2 hrs. Media was then replaced with Neurobasal media (Invitrogen Life Technologies) and B27 supplements (Invitrogen Life Technologies). Cultures were maintained at 37° C. in 5% CO2. Prior to experimentation, the culture medium was replaced with Neurobasal media and B27 minus antioxidants (Invitrogen Life Technologies).
Neuronal cortical cells were cultured for five days as per Assay 2 in NB media and B27 supplement.
On day six the test compounds were added to the neuronal cell cultures in NB media and B27 supplement minus antioxidants.
Test compounds were dissolved in 100% DMSO to a concentration of 2.5 mM (10 mM if excess compound was weighed out per vial—then diluted to 2.5 mM). 2.5 mM stock solution was serially diluted 1 in 10 to give working solutions of 250 uM, 25 uM, 2.5 uM. Test compounds were not added directly to cells, instead they were added to a 48 well ‘Drug Plate’ as comprised below: • Preparation of “Drug Plate”:
Well 1: 576 ul NB+B27 (no antioxidant)*+24 ul 2.5 uM test compound
Well 2: 576 ul NB+B27 (no antioxidant)+24 μl 25 uM test compound
Well 3: 576 ul NB+B27 (no antioxidant)+24 ul 250 uM test compound
Well 4: 576 ul NB+B27 (no antioxidant)+24 ul 2.5 uM test compound
Well 5: 576 ul NB+B27 (no antioxidant)+24 ul 25 uM test compound
Well 6: 576 ul NB+B27 (no antioxidant)+24 ul 250 uM test compound
Well 7: 576 ul NB+B27 (no antioxidant)+24 ul test compound diluent**
Well 8: 600 ul NB+B27 (no antioxidant)
The Drug Plate was incubated at 37° C. for 15 mins. 200 ul of each well was added in triplicate to the corresponding cell plate. The cell plate was incubated at 37° C., for 4 days, (2 compounds are tested on each plate of cells).
*NB media and B27 (no antioxidants),
**PBT diluent 10% DMSO in NB+1327 (no antioxidants)
On completion of the assay, 1/10 volume MTS was added per well of plate (ie 25 ul/250 ul). The plates were incubated at 37° C. for 2 hrs, and then absorbance was read at 560 nm.

T1 sequence (P10635 whole entry): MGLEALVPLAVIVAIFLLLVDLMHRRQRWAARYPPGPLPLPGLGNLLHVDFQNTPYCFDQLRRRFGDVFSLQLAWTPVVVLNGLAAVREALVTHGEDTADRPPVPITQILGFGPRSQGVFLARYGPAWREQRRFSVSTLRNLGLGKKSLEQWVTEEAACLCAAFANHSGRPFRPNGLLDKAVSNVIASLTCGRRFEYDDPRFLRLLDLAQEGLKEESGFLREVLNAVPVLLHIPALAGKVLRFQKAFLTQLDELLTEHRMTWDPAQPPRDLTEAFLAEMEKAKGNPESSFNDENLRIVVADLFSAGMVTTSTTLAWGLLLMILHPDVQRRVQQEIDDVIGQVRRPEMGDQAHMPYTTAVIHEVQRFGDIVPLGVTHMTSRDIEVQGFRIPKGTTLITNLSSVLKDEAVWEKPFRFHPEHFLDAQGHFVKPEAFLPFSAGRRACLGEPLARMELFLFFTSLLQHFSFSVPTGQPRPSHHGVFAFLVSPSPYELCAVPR

What is called IC50 is the point on the concentration scale where inhibition reaches its midpoint. Low readings indicate inhibition by little substance, high ones a need for much substance. The molecule `CNCc1nc2c(O)c(Cl)cc(Cl)c2c(=O)n1C` [Compound F4161] had an IC50 in data set [1] (human, liver microsomes, probe dextromethorphan 3 μM) of 40 µM.

Regarding `CN(C)Cc1nc2c(O)c(Cl)cc(Cl)c2c(=O)n1CC1CC1` [Compound F4267], the IC50 in data set [1] is 7.4 µM.

The term fraction unbound denotes the share of the substance not bound to proteins or other matrix. `CCn1c(CN(C)C)nc2c(O)c(Cl)cc(Cl)c2c1=O.Cl` [Compound F4268]: the IC50 in data set [1] is greater than 20 µM. The fraction unbound in data set [2] fell in the range of 0.178 to 0.203; in data set [3], 0.052 to 0.055.

`CN(C)Cc1nc2c(O)c(Cl)cc(Cl)c2c(=O)n1C` [Compound F4269, 5,7-Dichloro-2-(dimethylamino)methyl-8-hydroxy-3-methylquinazolin-4(3H)-one] displayed an IC50 in data set [1] greater than 30 µM. Further, the fraction unbound was 0.582 to 0.658 in data set [2] and 0.074 to 0.116 in data set [3].

Turning to `CCN(CC)Cc1nc2c(O)c(Cl)cc(Cl)c2c(=O)n1CC1CC1` [Compound F4385], the “Fe-DA % cf. Fe 0.4 μM/DA 50 μM” value in data set [4] is on record as 86%. For the same molecule, the results for the IC50 in data set [5] and in data set [1] were 0.91 µM and 5.1 µM, respectively. For the same molecule, in data set [6], the Metal transport entry is on record as “Metal transport 9%”. For the same molecule, the “Cytotox (% viable at 1 uM)” value in data set [7] is 99.2% and 105.0%. Besides, the “Cytotox (% viable at 10 uM)” value in data set [7] (10 uM) was determined as 97.7%.

With `C#CCN(C)Cc1nc2c(O)c(Cl)cc(Cl)c2c(=O)n1CC1CC1` [Compound F4387], in data set [4], the “Fe-DA % cf. Fe 0.4 μM/DA 50 μM” value was 77%. This molecule also showed an IC50 in data set [5] of 0.46 µM. Besides, the Metal transport result in data set [6] is given as “Metal transport 111%”. Further, the “Cytotox (% viable at 1 uM)” value in data set [7] was 104.0% and 92.7% and 95.9% and 100.7%.

For the molecule `Br.CCn1c(CNC)nc2c(O)c(Cl)cc(Cl)c2c1=O` [Compound F4486], the “Fe-DA % cf. Fe 0.4 μM/DA 50 μM” value in data set [4] was determined as 56%. The IC50 in data set [5] was determined as 1.93 µM. Further, the Metal transport entry in data set [6] is listed as “Metal transport 14%”. In data set [8], the “Cytotox (% viable at 1 uM)” value was 97.9% and 101.4%; the “Cytotox (% viable at 10 uM)” value is 52.2% and 43.3%.

For `CCNCc1nc2c(O)c(Cl)cc(Cl)c2c(=O)n1CC` [Compound F4495], in data set [4], the “Fe-DA % cf. Fe 0.4 μM/DA 50 μM” value came out at 45%. This molecule also gave an IC50 in data set [5] of 0.77 µM. The Metal transport result in data set [6] is reported as “Metal transport 8%”. This molecule returned an IC50 in data set [1] of 9.5 µM. Moreover, in data set [8], the “Cytotox (% viable at 1 uM)” value was 89.3% and 112.8%; the “Cytotox (% viable at 10 uM)” value was 47.9% and 57.1%.

As to `Br.CCNCc1nc2c(O)c(Cl)cc(Cl)c2c(=O)n1C` [Compound F4496], the “Fe-DA % cf. Fe 0.4 μM/DA 50 μM” value in data set [4] amounted to 45%. The IC50 in data set [5] is 0.83 µM; in data set [1], greater than 30 µM. Also, the Metal transport entry in data set [6] is reported as “Metal transport 7%”. Also, in data set [8], the “Cytotox (% viable at 1 uM)” value was 102.7% and 114.6%. The “Cytotox (% viable at 10 uM)” value in data set [8] was 59.4% and 101.2%.
